Test results published in US12522576B2, “Polymorphs of D9-THC naphthoylester” (priority 2019, dated 2026).
In brackets after ≈: the same amount, converted by molar mass.

Tests used:
[1] = Competitive ripening (relative thermodynamic stability of non-solvated forms)
[2] = Visual solubility of Form B; format: physicochemical
Method: Solubility of D9-THC-naphthoylester, Form B (Batch 2) was determined by visual assessment in various solvents at RT and 50° C. Aliquots of solvent were added to 20 mg of solids at room temperature and 25 mg of solids at 50° C. until complete dissolution or until a maximum volume of 1 mL was added.

Gravimetric solubility = format: physicochemical; settings: thermodynamic from solid
Method: Additional solids or solvents were added to visual solubility samples with vials less than 100 mg/mL to produce slurries at 20 and 50° C. for the subsequent equilibrium solubility assessment. The slurries were stirred at 20 and 50° C. overnight, filtered through 0.2 μm syringe filters and evaporated to dryness under reduced pressure at ambient temperature. Gravimetric solubility was calculated by dividing the dry solids residue mass (mg) by the solvent mass (g). The mg/g solubility values were then converted to mg/mL using solvent density.
The solubility of Group D acetone and DMF solvates were assessed in the corresponding solvents.

[3] = D9 solubility in the liquors at isolation temperature; format: physicochemical; settings: 1,4-Dioxane/MeOH (1:9), 25 °C, organic solvent or mixture, thermodynamic from solid, batch 5, 1,4-Dioxane/MeOH (1:9), seed E/G, heat T 50, isolation T 25, SP 3, 4.8 mL/g
Method: At the end of each experiment, suspensions were equilibrated at the isolation temperature (25 or 5° C.) for at least 18 hours and the solids and liquors separated by centrifugation at the isolation temperature. The Exo/D9/D8 ratio (Exo-D9-THC-naphthoylester impurity/D9-THC-naphthoylester/D8-THC-naphthoylester) was determined in both the isolated solids and the liquors, from which the % Exo-depletion in the isolated solids was calculated. Several solids were also isolated at elevated temperatures to assess the impact of the isolation temperature on Exo-impurity depletion.
In addition, the solubility of D9 in the liquors was determined in most of the explored solvents and used to estimate the yield.

With CCCCCc1cc(OC(=O)c2ccc3ccccc3c2)c2c(c1)OC(C)(C)[C@@H]1CCC(C)=C[C@@H]21 [Form B, (6aR,10aR)-6a,7,8,10a-tetrahydro-6,6,9-trimethyl-3-pentyl-6H-dibenzo[b,d]pyran-1-yl ester] the Relative thermodynamic stability [1] was “metastable form”, the “Nature (thermodynamic stability of crystal form)” value ([1]; Table 6 summary) was “Metastable” and the solubility ([2]; alcohols, organic solvent or mixture, thermodynamic from solid, read-out: Solubility) was < 10 mg/mL. The solubility ([2]; common organic solvents, organic solvent or mixture, thermodynamic from solid, read-out: Solubility) was > 100 mg/mL, the solubility ([2]; organic solvent or mixture, thermodynamic from solid, solvent 1,4-Dioxane, RT, read-out: Visual Solubility at RT) was > 404 mg/mL and the solubility ([2]; organic solvent or mixture, thermodynamic from solid, solvent 2Me-THF, RT, read-out: Visual Solubility at RT) was > 368 mg/mL. For the same compound, the solubility ([2]; organic solvent or mixture, thermodynamic from solid, solvent Acetone/MeOH (1:3), 50° C., read-out: Visual Solubility at 50° C.) was 25 to 40 mg/mL (≈ 53.3 to 85.4 mM), the solubility ([2]; organic solvent or mixture, thermodynamic from solid, solvent Acetone/MeOH (1:3), RT, read-out: Visual Solubility at RT) was 10 to 20 mg/mL (≈ 21.3 to 42.7 mM) and the solubility ([2]; organic solvent or mixture, thermodynamic from solid, solvent Acetone, RT, read-out: Visual Solubility at RT) was 94 to 376 mg/mL (≈ 201 to 802 mM). The solubility ([2]; organic solvent or mixture, thermodynamic from solid, solvent BuOH/MeOH (1:3), 50° C., read-out: Visual Solubility at 50° C.) was 26 to 51 mg/mL (≈ 55.5 to 109 mM), the solubility ([2]; organic solvent or mixture, thermodynamic from solid, solvent BuOH/MeOH (1:3), RT, read-out: Visual Solubility at RT) was < 10 mg/mL and the solubility ([2]; organic solvent or mixture, thermodynamic from solid, solvent Cyclohexane, RT, read-out: Visual Solubility at RT) was 92 to 368 mg/mL (≈ 196 to 785 mM). The solubility ([2]; organic solvent or mixture, thermodynamic from solid, solvent DCM, RT, read-out: Visual Solubility at RT) was > 404 mg/mL, the solubility ([2]; organic solvent or mixture, thermodynamic from solid, solvent DMSO, 50° C., read-out: Visual Solubility at 50° C.) was 25 to 50 mg/mL (≈ 53.3 to 107 mM) and the solubility ([2]; organic solvent or mixture, thermodynamic from solid, solvent DMSO, RT, read-out: Visual Solubility at RT) was 18 to 46 mg/mL (≈ 38.4 to 98.2 mM). For the same compound, the solubility ([2]; organic solvent or mixture, thermodynamic from solid, solvent EtOAc, RT, read-out: Visual Solubility at RT) was > 372 mg/mL, the solubility ([2]; organic solvent or mixture, thermodynamic from solid, solvent EtOH, 50° C., read-out: Visual Solubility at 50° C.) was 25 to 50 mg/mL (≈ 53.3 to 107 mM) and the solubility ([2]; organic solvent or mixture, thermodynamic from solid, solvent EtOH, RT, read-out: Visual Solubility at RT) was < 9 mg/mL. For the same compound, the solubility ([2]; organic solvent or mixture, thermodynamic from solid, solvent Heptane, 50° C., read-out: Visual Solubility at 50° C.) was 127 to 254 mg/mL (≈ 271 to 542 mM), the solubility ([2]; organic solvent or mixture, thermodynamic from solid, solvent Heptane, RT, read-out: Visual Solubility at RT) was 20 to 51 mg/mL (≈ 42.7 to 109 mM) and the solubility ([2]; organic solvent or mixture, thermodynamic from solid, solvent IPA:water (9:1), 50° C., read-out: Visual Solubility at 50° C.) was < 27 mg/mL. For the same compound, the solubility ([2]; organic solvent or mixture, thermodynamic from solid, solvent IPA:water (9:1), RT, read-out: Visual Solubility at RT) was < 10 mg/mL, the solubility ([2]; organic solvent or mixture, thermodynamic from solid, solvent IPA, 50° C., read-out: Visual Solubility at 50° C.) was 25 to 50 mg/mL (≈ 53.3 to 107 mM) and the solubility ([2]; organic solvent or mixture, thermodynamic from solid, solvent IPA, RT, read-out: Visual Solubility at RT) was < 10 mg/mL. The solubility ([2]; organic solvent or mixture, thermodynamic from solid, solvent MIBK, RT, read-out: Visual Solubility at RT) was 105 to 420 mg/mL (≈ 224 to 896 mM), the solubility ([2]; organic solvent or mixture, thermodynamic from solid, solvent MTBE, RT, read-out: Visual Solubility at RT) was 93 to 372 mg/mL (≈ 198 to 794 mM) and the solubility ([2]; organic solvent or mixture, thermodynamic from solid, solvent MeCN, 50° C., read-out: Visual Solubility at 50° C.) was 25 to 50 mg/mL (≈ 53.3 to 107 mM). For the same compound, the solubility ([2]; organic solvent or mixture, thermodynamic from solid, solvent MeCN, RT, read-out: Visual Solubility at RT) was 9 to 18 mg/mL (≈ 19.2 to 38.4 mM), the solubility ([2]; organic solvent or mixture, thermodynamic from solid, solvent MeOH, 50° C., read-out: Visual Solubility at 50° C.) was < 25 mg/mL and the solubility ([2]; organic solvent or mixture, thermodynamic from solid, solvent MeOH, RT, read-out: Visual Solubility at RT) was < 9 mg/mL. The solubility ([2]; organic solvent or mixture, thermodynamic from solid, solvent THF/MeOH (1:1), RT, read-out: Visual Solubility at RT) was 98 to 392 mg/mL (≈ 209 to 836 mM), the solubility ([2]; organic solvent or mixture, thermodynamic from solid, solvent Toluene, RT, read-out: Visual Solubility at RT) was > 376 mg/mL and the solubility ([2]; thermodynamic from solid, solvent Water, 50° C., read-out: Visual Solubility at 50° C.) was < 24 mg/mL. For the same compound, the solubility ([2]; thermodynamic from solid, solvent Water, RT, read-out: Visual Solubility at RT) was < 9 mg/mL, the solubility ([2]; water) was “poorly soluble” and the solubility (Gravimetric solubility; 20 °C, organic solvent or mixture, solvent Acetone/MeOH (1:3), RT, read-out: Gravimetric Solubility at RT) was ~9 mg/mL (≈ 19.2 mM). It also gave a solubility (Gravimetric solubility; 20 °C, organic solvent or mixture, solvent BuOH/MeOH (1:3), RT, read-out: Gravimetric Solubility at RT) of ~6 mg/mL (≈ 12.8 mM), a solubility (Gravimetric solubility; 20 °C, organic solvent or mixture, solvent EtOH, RT, read-out: Gravimetric Solubility at RT) of ~7 mg/mL (≈ 14.9 mM) and a solubility (Gravimetric solubility; 20 °C, organic solvent or mixture, solvent Heptane, RT, read-out: Gravimetric Solubility at RT) of ~33 mg/mL (≈ 70.4 mM). It also gave a solubility (Gravimetric solubility; 20 °C, organic solvent or mixture, solvent IPA:water (9:1), RT, read-out: Gravimetric Solubility at RT) of ~3 mg/mL (≈ 6.4 mM), a solubility (Gravimetric solubility; 20 °C, organic solvent or mixture, solvent IPA, RT, read-out: Gravimetric Solubility at RT) of ~7 mg/mL (≈ 14.9 mM) and a solubility (Gravimetric solubility; 20 °C, organic solvent or mixture, solvent MeCN, RT, read-out: Gravimetric Solubility at RT) of ~14 mg/mL (≈ 29.9 mM). For the same compound, the solubility (Gravimetric solubility; 20 °C, organic solvent or mixture, solvent MeOH, RT, read-out: Gravimetric Solubility at RT) was ~3 mg/mL (≈ 6.4 mM), the solubility (Gravimetric solubility; 20 °C, solvent Water, RT, read-out: Gravimetric Solubility at RT) was < 1 mg/mL and the solubility (Gravimetric solubility; organic solvent or mixture, solvent Acetone/MeOH (1:3), 50° C., read-out: Gravimetric Solubility at 50° C.) was ~41 mg/mL (≈ 87.5 mM). For the same compound, the solubility (Gravimetric solubility; organic solvent or mixture, solvent BuOH/MeOH (1:3), 50° C., read-out: Gravimetric Solubility at 50° C.) was ~24 mg/mL (≈ 51.2 mM), the solubility (Gravimetric solubility; organic solvent or mixture, solvent EtOH, 50° C., read-out: Gravimetric Solubility at 50° C.) was ~29 mg/mL (≈ 61.9 mM) and the solubility (Gravimetric solubility; organic solvent or mixture, solvent IPA:water (9:1), 50° C., read-out: Gravimetric Solubility at 50° C.) was ~18 mg/mL (≈ 38.4 mM). It also gave a solubility (Gravimetric solubility; organic solvent or mixture, solvent IPA, 50° C., read-out: Gravimetric Solubility at 50° C.) of ~45 mg/mL (≈ 96 mM), a solubility (Gravimetric solubility; organic solvent or mixture, solvent MeCN, 50° C., read-out: Gravimetric Solubility at 50° C.) of ~35 mg/mL (≈ 74.7 mM) and a solubility (Gravimetric solubility; organic solvent or mixture, solvent MeOH, 50° C., read-out: Gravimetric Solubility at 50° C.) of ~12 mg/mL (≈ 25.6 mM). For the same compound, the solubility (Gravimetric solubility; solvent Water, 50° C., read-out: Gravimetric Solubility at 50° C.) was < 1 mg/mL and the solubility [3] was 6 mg/mL (≈ 12.8 mM).
